Measured values reported in patent US20240132492A1, “PYRIDOPYRIMIDINE-BASED COMPOUND AND APPLICATION THEREOF” (JINAN UNIVERSITY, priority 2021, published 2024).

Legend:
Type in all cases: cell-based
PANC-1 = assay: CCK-8 tumor cell proliferation, PANC-1; details: Homo sapiens, PANC-1 cells, 72 hours
Description: (§1) Tumor cells (see Table 2 to Table 5) were inoculated in 96-well plates in complete culture medium (2000-3000 cells/well). After overnight incubation, the compounds with different concentrations (0.000508 μM-10 μM) were used to treat the cells separately for 72 hours. CCK-8 (Cell Counting Kit 8, Dojindo Laboratories, Kumamoto, Japan) experiment was used to evaluate cell proliferation. GraphPad Prism 5.0 software (La Jolla, CA) was used to calculate the half-maximal inhibitory concentration (IC50) values by fitting the concentration response curve. Each IC50 value was represented as an average value±SD.

A549 = assay: CCK-8 tumor cell proliferation, A549; details: Homo sapiens, A549 cells, 72 hours
Description: as §1

MIAPACA-2 = assay: CCK-8 tumor cell proliferation, MIAPACA-2; details: Homo sapiens, MIA PaCa-2, MIAPACA-2 cells, 72 hours
Description: as §1

MDA-MB-453 = assay: CCK-8 tumor cell proliferation, MDA-MB-453; details: Homo sapiens, MDA-MB-453 cells, 72 hours
Description: as §1

Huh7 = assay: CCK-8 tumor cell proliferation, Huh7; details: Homo sapiens, Huh-7, Huh7 cells, 72 hours
Description: as §1

MDA-MB-231 = assay: CCK-8 tumor cell proliferation, MDA-MB-231; details: Homo sapiens, MDA-MB-231 cells, 72 hours
Description: as §1

HCT116 = assay: CCK-8 tumor cell proliferation, HCT116; details: Homo sapiens, HCT-116, HCT116 cells, 72 hours
Description: as §1

HCC1937 = assay: CCK-8 tumor cell proliferation, HCC1937; details: Homo sapiens, HCC1937 cells, 72 hours
Description: as §1

BT-549 = assay: CCK-8 tumor cell proliferation, BT-549; details: Homo sapiens, BT-549 cells, 72 hours
Description: as §1

K562 = assay: CCK-8 tumor cell proliferation, K562; details: Homo sapiens, K562 cells, 72 hours
Description: as §1

BXPC-3 = assay: CCK-8 tumor cell proliferation, BXPC-3; details: Homo sapiens, BXPC-3 cells, 72 hours
Description: as §1

Bel-7402 = assay: CCK-8 tumor cell proliferation, Bel-7402; details: Homo sapiens, Bel-7402 cells, 72 hours
Description: as §1

H1975 = assay: CCK-8 tumor cell proliferation, H1975; details: Homo sapiens, NCI-H1975, H1975 cells, 72 hours
Outline: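 Steps: plate 2000-3000 cells/well in complete medium; incubate overnight; add compound, 0.000508 μM-10 μM, 72 h; assess proliferation with CCK-8; fit curves for IC50, expressed as mean±SD.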

AKT3 = AKT3 (Homo sapiens, UniProt Q9Y243); assay: Western Blot, degradation of AKT3 protein in H1975-OR cells; parameters: endogenous in cells; host or cells: H1975-OR (osimertinib-resistant H1975); details: 1000 nM, 24 hours, maximum degradation rate
AKT3, sequence (Q9Y243 whole entry): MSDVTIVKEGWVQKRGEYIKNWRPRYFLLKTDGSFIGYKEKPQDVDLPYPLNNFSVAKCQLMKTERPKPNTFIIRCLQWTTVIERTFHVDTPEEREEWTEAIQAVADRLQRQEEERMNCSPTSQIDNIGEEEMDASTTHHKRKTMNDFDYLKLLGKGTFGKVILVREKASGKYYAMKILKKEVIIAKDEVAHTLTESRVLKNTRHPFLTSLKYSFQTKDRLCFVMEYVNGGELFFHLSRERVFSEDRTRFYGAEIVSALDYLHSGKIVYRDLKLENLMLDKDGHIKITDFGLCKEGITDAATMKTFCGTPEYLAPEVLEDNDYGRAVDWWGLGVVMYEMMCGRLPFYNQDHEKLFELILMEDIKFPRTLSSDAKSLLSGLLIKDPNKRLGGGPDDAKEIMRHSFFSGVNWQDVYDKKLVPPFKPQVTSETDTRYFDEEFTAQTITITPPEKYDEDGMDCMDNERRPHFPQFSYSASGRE
Outline: (§2)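 H1975-OR cells are Osimertinib-resistant H1975, adapted stepwise from 50 nM to 3 μM Osimertinib. Cells were treated with compound for 24 h, lysed, and immunoblotted with ECL detection. Band grayscale density was quantified.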

H1975OR = assay: CCK-8 tumor cell proliferation, H1975OR; details: H1975OR cells (Osimertinib resistant), 72 hours
Outline: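 Osimertinib-resistant H1975 cells, selected by raising Osimertinib stepwise from 50 nM to 3 μM, were treated for 72 h with compound at 0.000508–10 μM. Proliferation was read by CCK-8, and IC50 came from fitting the concentration–response curve, given as mean ± SD.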

AKT2 = target: T1, AKT2 (Homo sapiens, UniProt P31751); assay: Western Blot, degradation of AKT2 protein in H1975-OR cells; details: 1000 nM, 24 hours, maximum degradation rate
T1 construct: AKT1, AKT2, and AKT3 proteins in H1975-OR cells; endogenous in cells; host or cells: H1975-OR (osimertinib-resistant H1975)
T1 sequence (P31751 whole entry): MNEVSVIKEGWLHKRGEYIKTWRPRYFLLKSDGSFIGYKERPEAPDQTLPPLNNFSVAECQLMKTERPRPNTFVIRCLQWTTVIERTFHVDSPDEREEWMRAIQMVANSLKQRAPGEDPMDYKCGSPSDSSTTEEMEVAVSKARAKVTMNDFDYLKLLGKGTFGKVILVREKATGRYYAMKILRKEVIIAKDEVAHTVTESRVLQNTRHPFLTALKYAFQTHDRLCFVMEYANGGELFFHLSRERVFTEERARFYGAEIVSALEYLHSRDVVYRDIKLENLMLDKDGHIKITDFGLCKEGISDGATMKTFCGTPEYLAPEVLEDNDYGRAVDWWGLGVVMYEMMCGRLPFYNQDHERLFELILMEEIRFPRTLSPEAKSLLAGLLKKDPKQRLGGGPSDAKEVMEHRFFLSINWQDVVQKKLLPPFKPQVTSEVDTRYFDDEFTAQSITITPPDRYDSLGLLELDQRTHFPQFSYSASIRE
Outline: as §2

AKT1 = target: T2, AKT1 (Homo sapiens, UniProt P31749); assay: Western Blot, degradation of AKT1 protein in H1975-OR cells; details: 1000 nM, 24 hours, maximum degradation rate
T2 construct: AKT1, AKT2, and AKT3 proteins in H1975-OR cells; endogenous in cells; host or cells: H1975-OR (osimertinib-resistant H1975)
T2 sequence (P31749 whole entry): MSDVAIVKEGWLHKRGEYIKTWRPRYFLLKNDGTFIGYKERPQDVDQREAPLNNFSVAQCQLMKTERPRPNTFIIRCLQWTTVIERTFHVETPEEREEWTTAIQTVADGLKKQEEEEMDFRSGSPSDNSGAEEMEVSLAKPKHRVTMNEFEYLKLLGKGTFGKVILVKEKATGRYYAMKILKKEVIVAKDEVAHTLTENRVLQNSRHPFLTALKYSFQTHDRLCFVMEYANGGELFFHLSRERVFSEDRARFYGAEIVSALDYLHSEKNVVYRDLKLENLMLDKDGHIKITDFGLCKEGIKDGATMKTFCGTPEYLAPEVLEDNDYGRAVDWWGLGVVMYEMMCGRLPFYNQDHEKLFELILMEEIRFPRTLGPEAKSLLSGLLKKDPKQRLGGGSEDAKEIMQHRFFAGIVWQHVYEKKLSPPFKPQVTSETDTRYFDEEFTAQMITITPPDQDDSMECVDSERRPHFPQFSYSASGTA
Outline: as §2

| IC50 (PANC-1) [µM] | IC50 (A549) [µM] | IC50 (MIAPACA-2) [µM] | IC50 (MDA-MB-453) [µM] | IC50 (Huh7) [µM] | IC50 (MDA-MB-231) [µM] | IC50 (HCT116) [µM] | IC50 (HCC1937) [µM] | IC50 (BT-549) [µM] | IC50 (K562) [µM] | IC50 (BXPC-3) [µM] | IC50 (Bel-7402) [µM] | IC50 (H1975) [µM] | Dmax at 1 µM (AKT3) [%] | IC50 (H1975OR) [µM] | Dmax at 1 µM (AKT2) [%] | Dmax at 1 µM (AKT1) [%] | Structure (SMILES) |
| --- | --- | --- | --- | --- | --- | --- | --- | --- | --- | --- | --- | --- | --- | --- | --- | --- | --- |
| 0.179 | 1.17 | 0.0511 | > 10 | 0.335 | 0.104 | 0.0729 | > 10 | > 10 | 0.234 | 0.447 | > 10 |  |  |  |  |  | COc1cc(N2CCN(C(=O)C34CC5CC(CC(C5)C3)C4)CC2)ccc1Nc1ncc2c(C)cc(=O)n(-c3cccc(NC(=O)C4CC4)c3)c2n1 [ZX-HYT-65, N-(3-(2-((4-(4-((3R, 5R, 7R)-adamantan-1-carbonyl)piperazin-1-yl)-2-methoxyphenyl)amino)-5-methyl-7-oxypyridino [2,3-d]pyrimidin-8 (7H)-yl)phenyl) cyclopropane formamide] |
|  |  |  | > 10 |  | < 0.001 |  |  | 0.00421 |  |  | 0.041 | 2.29 | 28 | 3.46 | 0 | 0 | COc1cc(N2CCN(CCCCCCCCCCCCNC(=O)CC34CC5CC(CC(C5)C3)C4)CC2)ccc1Nc1ncc2c(C)cc(=O)n(-c3cccc(NCC4CC4)c3)c2n1 [ZX-HYT-19, 2-((3R, 5R, 7R)-adamantan-1-yl)-N-(12-(4-(4-(8-(3-((cyclopropylmethyl)amino)phenyl)-5-methyl-7-oxy-7,8-dihydropyridino [2,3-d]pyrimidin-2-yl)amino)-3-methoxyphenyl)piperazin-1-yl) dodecyl) acetamide] |
| 0.125 | 0.629 | 0.0513 | > 10 | > 10 | 0.145 | 0.0553 | > 10 | 0.644 | 0.263 | 0.333 | > 3 |  |  |  |  |  | COc1cc(N2CCN(CCNC(=O)CC34CC5CC(CC(C5)C3)C4)CC2)ccc1Nc1ncc2c(C)cc(=O)n(-c3cccc(NC(=O)C4CC4)c3)c2n1 [ZX-HYT-51, N-(3-(2-((4-(4-(2-(2-((3R, 5R, 7R)-adamantan-1-yl)acetylamino)ethyl)piperazin-1-yl)-2-methoxyphenyl))amino)-5-methyl-7-oxypyridino [2,3-d]pyrimidin-8 (7H)-yl) phenyl) cyclopropane formamide] |
| 0.0137 | 0.668 | 0.00864 | > 10 | 0.632 | 0.155 | 0.0119 | > 10 | > 10 | 0.0293 | 0.0421 | > 10 |  |  |  |  |  | COc1cc(N2CCN(C(=O)CC34CC5CC(CC(C5)C3)C4)CC2)ccc1Nc1ncc2c(C)cc(=O)n(-c3cccc(NC(=O)C4CC4)c3)c2n1 [ZX-HYT-50, N-(3-(2-((4-(4-(2-((3R, 5R, 7R)-adamantan-1-yl)acetyl)piperazin-1-yl)-2-methoxyphenyl)amino)-5-methyl-7-oxypyridino [2,3-d]pyrimidin-8 (7H)-yl)phenyl) cyclopropane formamide] |
|  |  |  | > 10 |  | 0.0152 |  | 4 | 0.141 |  |  | 0.37 |  |  |  |  |  | COc1cc(N2CCN(C(=O)NC34CC5CC(CC(C5)C3)C4)CC2)ccc1Nc1ncc2c(C)cc(=O)n(-c3cccc(NC(=O)C4CC4)c3)c2n1 [ZX-HYT-64, N-((3S, 5S, 7S)-adamantan-1-yl)-4-(4-((8-(3-(cyclopropaneformamido)phenyl)-5-methyl-7-oxy-7,8-dihydropyridino [2,3-d]pyrimidin-2-yl)amino)-3-methoxyphenyl) piperazin-1-formamide] |
|  |  |  |  | > 10 |  |  |  | 0.376 |  |  |  |  |  |  |  |  | COc1nc(N2CCN(C(=O)CC34CC5CC(CC(C5)C3)C4)CC2)ccc1Nc1ncc2c(C)cc(=O)n(-c3cccc(NC(=O)C4CC4)c3)c2n1 [ZX-HYT-67, N-(3-(2-(6-(4-(2-((3R, 5R, 7R)-adamantan-1-yl)acetyl)piperazin-1-yl)-2-methoxypyridin-3-yl))amino)-5-methyl-7-oxypyridino [2,3-d] pyrimidin-8 (7H)-yl) phenyl) cyclopropane formamide] |
| 0.126 | 0.833 | 0.0721 | 2.5 | 1.35 | 1.99 | 0.104 | 0.002 to 0.005 | 0.478 | 0.25 | 0.303 | 0.568 |  |  |  |  |  | COc1cc(N2CCN(CCCCNC(=O)CC34CC5CC(CC(C5)C3)C4)CC2)ccc1Nc1ncc2c(C)cc(=O)n(-c3cccc(NC(=O)C4CC4)c3)c2n1 [ZX-HYT-52, N-(3-(2-((4-(4-(4-(2-((3R, 5R, 7R)-adamantan-1-yl)acetylamino)butyl)piperazin-1-yl)-2-methoxyphenyl))amino)-5-methyl-7-oxypyridino [2,3-d]pyrimidin-8 (7H)-yl) phenyl) cyclopropane formamide] |
|  |  |  |  | 0.12 |  |  |  | 0.0267 |  |  |  |  |  |  |  |  | COc1cc(N2CCC(C(=O)NCC34CC5CC(CC(C5)C3)C4)CC2)ccc1Nc1ncc2c(C)cc(=O)n(-c3cccc(NC(=O)C4CC4)c3)c2n1 [ZX-HYT-89, N-(((3R, 5R, 7R)-adamantan-1-yl)methyl)-1-(4-((8-(3-(cyclopropaneformamido)phenyl)-5-methyl-7-oxy-7,8-dihydropyridino [2,3-d]pyrimidin-2-yl)amino)-3-methoxyphenyl) piperidin-4-formamide] |
